From patent US8481595B2, “Compounds for the treatment of metabolic disorders” (Wellstat Therapeutics Corporation, priority 2008, dated 2013)

System: db/db mice
Assay: Antidiabetic effects in db/db mice (serum chemistry after 2 weeks of daily oral dosing)
Type: in vivo
Source text: Db/db mice have a defect in leptin signaling, leading to hyperphagia, obesity and diabetes. Moreover, unlike ob/ob mice on a C57BL/6J background, db/db mice on a C57BLKS background undergo failure of their insulin-producing pancreatic islet cells, resulting in progression from hyperinsulinemia (associated with peripheral insulin resistance) to hypoinsulinemic diabetes.
Male obese (db/db homozygote) C57BL/Ksola mice approximately 8 weeks of age, were obtained from Jackson Labs (Bar Harbor, Me.) and randomly assigned into groups of 5-7 animals such that the body weights (40-45 g) and serum glucose levels (≧300 mg/dl in fed state) were similar between groups; male lean (db/+heterozygote) mice served as cohort controls. A minimum of 7 days was allowed for adaptation after arrival. All animals were maintained under controlled temperature (23° C.), relative humidity (50±5%) and light (7:0-19:00), and allowed free access to standard chow (Formulab Diet 5008, Quality Lab Products, Elkridge, Md.) and water.
Mice received daily oral doses of vehicle or Compound DP (100 mg/kg/day) for 2 weeks. At the end of the treatment period 100 μl of venous blood was withdrawn in a heparinized capillary tube from the retro-orbital sinus for serum chemistry analysis.

[1] = db/db mice, after 2 weeks of daily oral dosing, 100 mg/kg/day

Cc1cccc(C)c1C(=O)Oc1cccc(C(=O)CCC(=O)O)c1 [Compound DP, 4-(3-(2,6-Dimethylbenzoyloxy)phenyl)-4-oxobutanoic acid]
reduction in serum glucose (in words) [1]: significant reduction
reduction in serum triglycerides (in words) [1]: significant reduction
Triglycerides (serum) (male db/db C57BL/Ksola mice, 100 mg/kg/day oral, 2 weeks, vehicle 388.0 ± 50.7, lean 96.4 ± 6.4, *p < 0.05 vs vehicle-control): 140.8 ± 20.6* mg/dL
Glucose (serum) (male db/db C57BL/Ksola mice, 100 mg/kg/day oral, 2 weeks, vehicle 752.9 ± 46.0, lean 212.6 ± 15.3, *p < 0.05 vs vehicle-control): 264.3 ± 96.8* mg/dL
